# Measurements as given in PMC5908784, “Extracellular loops 2 and 3 of the calcitonin receptor selectively modify agonist binding and efficacy” (Biochemical Pharmacology, 2018).
# Residue numbers refer to the chain shown, from its start. Like-named read-outs stand apart in the source and are kept apart here. Where a SMILES comes first, the peptide text is derived from it. Bridges are numbered along the chain shown (N, C = ends).
# Legend:
# Test in all cases: IP1 accumulation
# Assay type in all cases: cell-based
# [1] = target: T1, hCTR L298A (Homo sapiens, UniProt P30988, L298A); conditions: for Emax: read-out: Emax (% WT), SEM
# T1 construct: c-Myc (N); expressed in transfected cells
# T1 sequence (P30988 25-474 L298A): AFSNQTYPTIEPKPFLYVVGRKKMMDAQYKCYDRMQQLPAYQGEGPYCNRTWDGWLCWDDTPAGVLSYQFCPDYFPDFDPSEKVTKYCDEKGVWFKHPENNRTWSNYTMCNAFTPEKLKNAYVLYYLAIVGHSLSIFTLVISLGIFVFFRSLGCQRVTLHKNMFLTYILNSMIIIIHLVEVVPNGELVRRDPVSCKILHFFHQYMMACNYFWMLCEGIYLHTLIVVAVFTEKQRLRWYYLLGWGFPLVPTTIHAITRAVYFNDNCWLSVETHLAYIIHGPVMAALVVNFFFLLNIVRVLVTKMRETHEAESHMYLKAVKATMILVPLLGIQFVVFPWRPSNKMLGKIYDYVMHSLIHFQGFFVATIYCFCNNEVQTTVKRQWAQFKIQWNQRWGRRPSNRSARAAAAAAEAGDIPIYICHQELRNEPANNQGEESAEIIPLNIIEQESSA
# Method in brief: (§1)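 HTRF IP-One readout of IP1 after 60 min ligand stimulation (LiCl present), cells seeded overnight. Normalized to 100 μM ATP max response. EC50/Emax via 3-parameter logistic curve fit.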
# [2] = target: T2, hCTR V283A (Homo sapiens, UniProt P30988, V283A); conditions: mean ± S.E.M.; for Emax: IP1 maximal response, SEM
# T2 construct: expressed in transfected cells
# T2 sequence (P30988 25-474 V283A): T1 sequence (P30988 25-474 L298A) with V259A, A274L
# Method in brief: as §1
# [3] = target: T3, hCTR Y372A (Homo sapiens, UniProt P30988, Y372A); conditions: mean ± S.E.M.; for Emax: IP1 maximal response, SEM
# T3 construct: c-Myc (N); expressed in transfected cells
# T3 sequence (P30988 25-474 Y372A): T1 sequence (P30988 25-474 L298A) with A274L, Y348A
# Method in brief: as §1
# [4] = target: T4, hCTR M367A (Homo sapiens, UniProt P30988, M367A); conditions: mean ± S.E.M.; for Emax: IP1 maximal response, SEM
# T4 construct: c-Myc (N); expressed in transfected cells
# T4 sequence (P30988 25-474 M367A): T1 sequence (P30988 25-474 L298A) with A274L, M343A
# Method in brief: as §1
# [5] = target: T5, hCTR V293A (Homo sapiens, UniProt P30988, V293A); conditions: mean ± S.E.M.; for Emax: IP1 maximal response, SEM
# T5 construct: c-Myc (N); expressed in transfected cells
# T5 sequence (P30988 25-474 V293A): T1 sequence (P30988 25-474 L298A) with V269A, A274L
# Method in brief: as §1
# [6] = IP1, CV1-FlpIn cells, 60 min, LiCl
"EC50 ([1]; L298A, IP1, CV1-FlpIn cells, 60 min, LiCl, mean ± S.E.M.) [nM]","Emax ([1]; L298A, IP1 maximal response, mean ± S.E.M.) [%]","EC50 [2, 6] [nM]","EC50 [3, 6] [nM]","EC50 [4, 6] [nM]","EC50 [5, 6] [nM]",SMILES,Emax [1] [%],Emax [2] [%],Emax [3] [%],Emax [4] [%],Emax [5] [%]
–,–,–,–,–,–,CC[C@H](C)[C@H](NC(=O)[C@H](C)NC(=O)[C@@H](NC(=O)[C@H](CCC(N)=O)NC(=O)[C@@H]1CCCN1C(=O)[C@H](Cc1ccccc1)NC(=O)[C@@H](NC(=O)[C@H](Cc1c[nH]cn1)NC(=O)[C@H](Cc1ccccc1)NC(=O)[C@H](CCCCN)NC(=O)[C@H](CC(N)=O)NC(=O)[C@H](Cc1ccccc1)NC(=O)[C@H](CC(=O)O)NC(=O)[C@H](CCC(N)=O)NC(=O)[C@@H](NC(=O)[C@H](Cc1ccc(O)cc1)NC(=O)[C@@H](NC(=O)CNC(=O)[C@H](CC(C)C)NC(=O)[C@H](CCSC)NC(=O)[C@@H]1CSSC[C@H](N)C(=O)NCC(=O)N[C@@H](CC(N)=O)C(=O)N[C@@H](CC(C)C)C(=O)N[C@@H](CO)C(=O)N[C@@H]([C@@H](C)O)C(=O)N1)[C@@H](C)O)[C@@H](C)O)[C@@H](C)O)[C@@H](C)O)C(=O)NCC(=O)N[C@H](C(=O)NCC(=O)N[C@@H](C)C(=O)N1CCC[C@H]1C(N)=O)C(C)C [hCT],58 ± 6,67 ± 6,68 ± 9,149 ± 8,87 ± 4
4.07,91 ± 10,6.17,2.88,5.13,3.24,CSCC[C@H](NC(=O)CNC(=O)[C@H](CO)NC(=O)[C@H](Cc1ccccc1)NC(=O)[C@H](CCCNC(=N)N)NC(=O)[C@H](Cc1c[nH]cn1)NC(=O)[C@H](Cc1ccccc1)NC(=O)[C@H](CC(N)=O)NC(=O)[C@H](CC(N)=O)NC(=O)[C@H](CC(C)C)NC(=O)[C@H](CC(N)=O)NC(=O)[C@H](CCCNC(=N)N)NC(=O)[C@H](Cc1c[nH]c2ccccc12)NC(=O)[C@H](Cc1ccc(O)cc1)NC(=O)[C@H](C)NC(=O)[C@H](CO)NC(=O)[C@H](CC(C)C)NC(=O)[C@@H](NC(=O)[C@@H]1CSSC[C@H](N)C(=O)N[C@@H](CO)C(=O)N[C@@H](CC(N)=O)C(=O)N[C@@H](CC(C)C)C(=O)N[C@@H](CO)C(=O)N[C@@H]([C@@H](C)O)C(=O)N1)C(C)C)C(=O)NCC(=O)N[C@@H](Cc1ccccc1)C(=O)NCC(=O)N1CCC[C@H]1C(=O)N[C@@H](CCC(=O)O)C(=O)N[C@H](C(=O)N1CCC[C@H]1C(N)=O)[C@@H](C)O [pCT] (H-CSNLSTCVLSAYWRNLNNFHRFSGMGFGPETP-NH2; disulfide 1-7),–,100 ± 5,44 ± 5,101 ± 8,112 ± 10
–,–,–,–,–,–,CC(C)C[C@H](NC(=O)[C@H](CCCCN)NC(=O)CNC(=O)[C@H](CC(C)C)NC(=O)[C@@H](NC(=O)[C@@H]1CSSC[C@H](N)C(=O)N[C@@H](CO)C(=O)N[C@@H](CC(N)=O)C(=O)N[C@@H](CC(C)C)C(=O)N[C@@H](CO)C(=O)N[C@@H]([C@@H](C)O)C(=O)N1)C(C)C)C(=O)N[C@@H](CO)C(=O)N[C@@H](CCC(N)=O)C(=O)N[C@@H](CCC(=O)O)C(=O)N[C@@H](CC(C)C)C(=O)N[C@@H](Cc1c[nH]cn1)C(=O)N[C@@H](CCCCN)C(=O)N[C@@H](CC(C)C)C(=O)N[C@@H](CCC(N)=O)C(=O)N[C@H](C(=O)N[C@@H](Cc1ccc(O)cc1)C(=O)N1CCC[C@H]1C(=O)N[C@@H](CCCNC(=N)N)C(=O)N[C@H](C(=O)N[C@@H](CC(N)=O)C(=O)N[C@H](C(=O)NCC(=O)N[C@@H](CO)C(=O)NCC(=O)N[C@H](C(=O)N1CCC[C@H]1C(N)=O)[C@@H](C)O)[C@@H](C)O)[C@@H](C)O)[C@@H](C)O [sCT],66 ± 5,115 ± 6,46 ± 4,123 ± 6,109 ± 7
